Experimental data published in PubChem BioAssay AID272 (DTP/NCI, 2004).
Several values for one entry are separate records, joined by “and”; a condition that tells them apart may be missing. Identical values can stand only once. Results filed as inconclusive are left out.

System: Lewis lung carcinoma i.m., BDF1 mice, T/C %
Test: NCI In Vivo Anticancer Drug Screen. Data for tumor model Lewis Lung Carcinoma (intramuscular) in B6D2F1 (BDF1) mice
Summary of the method: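 Transplantable tumour model; readout survival or tumour size; value = treated (T) / vehicle control (C).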

[1] = endpoint: mean tumor weight (est.), dose: 0.25 mg/kg/injection, schedule: Q01DX011 (ip), vehicle: saline, higher = larger tumour
[2] = endpoint: mean tumor weight (est.), dose: 0.5 mg/kg/injection, schedule: Q01DX011 (ip), vehicle: saline, higher = larger tumour
[3] = endpoint: mean tumor weight (est.), dose: 1.0 mg/kg/injection, schedule: Q01DX011 (ip), vehicle: saline, higher = larger tumour
[4] = endpoint: median survival time, dose: 0.25 mg/kg/injection, schedule: Q01DX011 (ip), vehicle: saline, higher = longer survival
[5] = endpoint: median survival time, dose: 0.5 mg/kg/injection, schedule: Q01DX011 (ip), vehicle: saline, higher = longer survival
[6] = endpoint: median survival time, dose: 4.0 mg/kg/injection, schedule: Q01DX011 (ip), vehicle: saline, higher = longer survival
[7] = endpoint: median survival time, dose: 8.0 mg/kg/injection, schedule: Q01DX011 (ip), vehicle: saline, higher = longer survival
[8] = endpoint: median survival time, dose: 16.0 mg/kg/injection, schedule: Q01DX011 (ip), vehicle: saline, higher = longer survival

C=CCN1/C(=C/C=C\c2sc3ccccc3[n+]2CC=C)Sc2ccccc21
T/C (endpoint: mean tumor weight (est.), dose: 0.07 mg/kg/injection, schedule: Q01DX011 (ip), vehicle: saline, higher = larger tumour): 89 % of control
T/C (endpoint: mean tumor weight (est.), dose: 0.13 mg/kg/injection, schedule: Q01DX011 (ip), vehicle: saline, higher = larger tumour): 87 % of control
T/C [1]: 117 % of control
T/C [2]: 93 % of control
T/C [3]: 113 % of control
T/C (endpoint: median survival time, dose: 0.06 mg/kg/injection, schedule: Q01DX011 (ip), vehicle: saline, higher = longer survival): 93 % of control
T/C (endpoint: median survival time, dose: 0.13 mg/kg/injection, schedule: Q01DX011 (ip), vehicle: saline, higher = longer survival): 86 % of control
T/C [4]: 87 % of control
T/C [5]: 89 % of control

COc1cc(C[C@H]2c3cc(OC)c(OC)cc3CCN2C)c(Oc2cc3c(cc2OC)-c2c(OC)c(OC)cc4c2[C@H](C3)N(C)CC4)cc1OC
T/C (endpoint: mean tumor weight, dose: 12.5 mg/kg/injection, schedule: Q01DX011 (ip), vehicle: other, higher = larger tumour): 104 % of control
T/C (endpoint: mean tumor weight, dose: 25.0 mg/kg/injection, schedule: Q01DX011 (ip), vehicle: other, higher = larger tumour): 100 % of control
T/C (endpoint: mean tumor weight, dose: 50.0 mg/kg/injection, schedule: Q01DX011 (ip), vehicle: other, higher = larger tumour): 93 % of control
T/C (endpoint: median survival time, dose: 12.5 mg/kg/injection, schedule: Q01DX011 (ip), vehicle: other, higher = longer survival): 105 % of control
T/C (endpoint: median survival time, dose: 25.0 mg/kg/injection, schedule: Q01DX011 (ip), vehicle: other, higher = longer survival): 108 % of control
T/C (endpoint: median survival time, dose: 50.0 mg/kg/injection, schedule: Q01DX011 (ip), vehicle: other, higher = longer survival): 117 % of control

N#Cc1c(F)c(F)c(C#N)c(F)c1F
T/C (endpoint: mean tumor weight (est.), dose: 1.25 mg/kg/injection, schedule: Q01DX011 (ip), vehicle: saline with Tween-80, higher = larger tumour): 100 % of control
T/C (endpoint: mean tumor weight (est.), dose: 2.5 mg/kg/injection, schedule: Q01DX011 (ip), vehicle: saline with Tween-80, higher = larger tumour): 95 % of control
T/C (endpoint: mean tumor weight (est.), dose: 5.0 mg/kg/injection, schedule: Q01DX011 (ip), vehicle: saline with Tween-80, higher = larger tumour): 101 % of control
T/C (endpoint: mean tumor weight (est.), dose: 10.0 mg/kg/injection, schedule: Q01DX011 (ip), vehicle: saline with Tween-80, higher = larger tumour): 70 % of control
T/C (endpoint: median survival time, dose: 1.25 mg/kg/injection, schedule: Q01DX011 (ip), vehicle: saline with Tween-80, higher = longer survival): 87 % of control
T/C (endpoint: median survival time, dose: 10.0 mg/kg/injection, schedule: Q01DX011 (ip), vehicle: saline with Tween-80, higher = longer survival): 89 % of control

CCCCCCCCCCCC(c1ccccc1)[N+](C)(C)Cc1ccccc1 (stereo not given)
T/C [1]: 80 % of control
T/C [2]: 70 % of control
T/C [3]: 61 % of control
T/C [4]: 87 % of control
T/C [5]: 91 % of control
T/C (endpoint: median survival time, dose: 1.0 mg/kg/injection, schedule: Q01DX011 (ip), vehicle: saline, higher = longer survival): 120 % of control

O=NN(CCCl)C(=O)NCCCl
T/C (endpoint: mean tumor weight, dose: 1.5 mg/kg/injection, schedule: Q01DX011 (ip), vehicle: other, higher = larger tumour): 57 % of control
T/C (endpoint: mean tumor weight, dose: 3.0 mg/kg/injection, schedule: Q01DX011 (ip), vehicle: other, higher = larger tumour): 47 % of control
T/C (endpoint: mean tumor weight, dose: 6.0 mg/kg/injection, schedule: Q01DX011 (ip), vehicle: other, higher = larger tumour): 12 % of control
T/C (endpoint: mean tumor weight, dose: 14.0 mg/kg/injection, schedule: Q01DX001 (sc), vehicle: saline, higher = larger tumour): 76 % of control
T/C (endpoint: mean tumor weight, dose: 23.0 mg/kg/injection, schedule: Q01DX001 (sc), vehicle: saline, higher = larger tumour): 65 % of control
T/C (endpoint: mean tumor weight, dose: 39.0 mg/kg/injection, schedule: Q01DX001 (sc), vehicle: saline, higher = larger tumour): 35 % of control
T/C (endpoint: mean tumor weight, dose: 65.0 mg/kg/injection, schedule: Q01DX001 (sc), vehicle: saline, higher = larger tumour): 22 % of control
T/C (endpoint: median survival time, dose: 1.0 mg/kg/injection, schedule: Q01DX009 (ip), vehicle: saline + alcohol, higher = longer survival): 113 % of control
T/C (endpoint: median survival time, dose: 1.25 mg/kg/injection, schedule: Q01DX015 (ip), vehicle: saline, higher = longer survival): 108 % of control
T/C (endpoint: median survival time, dose: 1.5 mg/kg/injection, schedule: Q01DX011 (ip), vehicle: other, higher = longer survival): 102 % of control
T/C (endpoint: median survival time, dose: 1.5 mg/kg/injection, schedule: Q01DX011 (ip), vehicle: saline, higher = longer survival): 110 % of control
T/C (endpoint: median survival time, dose: 2.0 mg/kg/injection, schedule: Q01DX011 (ip), vehicle: saline, higher = longer survival): 97 % of control
T/C (endpoint: median survival time, dose: 2.5 mg/kg/injection, schedule: Q01DX015 (ip), vehicle: saline, higher = longer survival): 124 % of control
T/C (endpoint: median survival time, dose: 3.0 mg/kg/injection, schedule: Q01DX011 (ip), vehicle: other, higher = longer survival): 104 % of control
T/C (endpoint: median survival time, dose: 4.0 mg/kg/injection, schedule: Q01DX009 (ip), vehicle: saline + alcohol, higher = longer survival): 113 % of control
T/C [6]: 115 % of control
T/C (endpoint: median survival time, dose: 5.0 mg/kg/injection, schedule: Q01DX001 (ip), vehicle: saline + alcohol, higher = longer survival): 107 % of control
T/C (endpoint: median survival time, dose: 5.0 mg/kg/injection, schedule: Q01DX015 (ip), vehicle: saline, higher = longer survival): 111 % of control
T/C (endpoint: median survival time, dose: 5.0 mg/kg/injection, schedule: Q07DX003 (ip), vehicle: saline, higher = longer survival): 95 % of control
T/C (endpoint: median survival time, dose: 5.0 mg/kg/injection, schedule: Q16DX002 (ip), vehicle: saline, higher = longer survival): 167 % of control
T/C (endpoint: median survival time, dose: 5.0 mg/kg/injection, schedule: Q## X002 (ip), vehicle: saline, higher = longer survival): 168 % of control
T/C (endpoint: median survival time, dose: 6.0 mg/kg/injection, schedule: Q01DX011 (ip), vehicle: saline, higher = longer survival): 157 % of control
T/C [7]: 102 % of control and 110 % of control
T/C (endpoint: median survival time, dose: 8.4 mg/kg/injection, schedule: Q01DX001 (ip), vehicle: saline, higher = longer survival): 158 % of control and 160 % of control
T/C (endpoint: median survival time, dose: 8.4 mg/kg/injection, schedule: Q06DX002 (ip), vehicle: saline, higher = longer survival): 105 % of control
T/C (endpoint: median survival time, dose: 8.4 mg/kg/injection, schedule: Q16DX002 (ip), vehicle: saline, higher = longer survival): 89 % of control
T/C (endpoint: median survival time, dose: 8.4 mg/kg/injection, schedule: Q## X002 (ip), vehicle: saline, higher = longer survival): 87 % of control
T/C (endpoint: median survival time, dose: 10.0 mg/kg/injection, schedule: Q01DX001 (ip), vehicle: saline + alcohol, higher = longer survival): 111 % of control
T/C (endpoint: median survival time, dose: 10.0 mg/kg/injection, schedule: Q07DX003 (ip), vehicle: saline, higher = longer survival): 94 % of control
T/C (endpoint: median survival time, dose: 14.0 mg/kg/injection, schedule: Q01DX001 (ip), vehicle: saline, higher = longer survival): 156 % of control and 157 % of control
T/C (endpoint: median survival time, dose: 14.0 mg/kg/injection, schedule: Q01DX001 (sc), vehicle: saline, higher = longer survival): 112 % of control
T/C (endpoint: median survival time, dose: 14.0 mg/kg/injection, schedule: Q06DX002 (ip), vehicle: saline, higher = longer survival): 102 % of control
T/C (endpoint: median survival time, dose: 14.0 mg/kg/injection, schedule: Q07DX003 (ip), vehicle: saline, higher = longer survival): 102 % of control
T/C [8]: 91 % of control
T/C (endpoint: median survival time, dose: 20.0 mg/kg/injection, schedule: Q01DX001 (ip), vehicle: saline + alcohol, higher = longer survival): 123 % of control
T/C (endpoint: median survival time, dose: 20.0 mg/kg/injection, schedule: Q07DX003 (ip), vehicle: saline, higher = longer survival): 111 % of control
T/C (endpoint: median survival time, dose: 23.0 mg/kg/injection, schedule: Q01DX001 (ip), vehicle: saline, higher = longer survival): 208 % of control and 210 % of control
T/C (endpoint: median survival time, dose: 23.0 mg/kg/injection, schedule: Q06DX002 (ip), vehicle: saline, higher = longer survival): 109 % of control
T/C (endpoint: median survival time, dose: 23.0 mg/kg/injection, schedule: Q07DX003 (ip), vehicle: saline, higher = longer survival): 108 % of control
T/C (endpoint: median survival time, dose: 39.0 mg/kg/injection, schedule: Q01DX001 (ip), vehicle: saline, higher = longer survival): 216 % of control and 218 % of control
T/C (endpoint: median survival time, dose: 39.0 mg/kg/injection, schedule: Q06DX002 (ip), vehicle: saline, higher = longer survival): 102 % of control
T/C (endpoint: median survival time, dose: 39.0 mg/kg/injection, schedule: Q16DX002 (ip), vehicle: saline, higher = longer survival): 61 % of control and 101 % of control
T/C (endpoint: median survival time, dose: 39.0 mg/kg/injection, schedule: Q## X002 (ip), vehicle: saline, higher = longer survival): 104 % of control
T/C (endpoint: median survival time, dose: 40.0 mg/kg/injection, schedule: Q01DX001 (ip), vehicle: saline + alcohol, higher = longer survival): 64 % of control
T/C (endpoint: median survival time, dose: 65.0 mg/kg/injection, schedule: Q01DX001 (ip), vehicle: saline, higher = longer survival): 38 % of control
T/C (endpoint: median survival time, dose: 65.0 mg/kg/injection, schedule: Q06DX002 (ip), vehicle: saline, higher = longer survival): 45 % of control
T/C (endpoint: median survival time, dose: 65.0 mg/kg/injection, schedule: Q16DX002 (ip), vehicle: saline, higher = longer survival): 24 % of control

Clc1ccc(C(c2ccccc2Cl)C(Cl)Cl)cc1 (stereo not given)
T/C (endpoint: median survival time, dose: 50.0 mg/kg/injection, schedule: Q01DX011 (ip), vehicle: Klucel (hydroxypropylcellulose) (HPC), higher = longer survival): 88 % of control
T/C (endpoint: median survival time, dose: 100.0 mg/kg/injection, schedule: Q01DX011 (ip), vehicle: Klucel (hydroxypropylcellulose) (HPC), higher = longer survival): 95 % of control

Nc1ccn(C2OC(COP(=O)(O)O)C(O)C2O)c(=O)n1 (stereo not given)
T/C (endpoint: mean tumor weight, dose: 19.6 mg/kg/injection, schedule: Q01DX011 (ip), vehicle: saline, higher = larger tumour): 68 % of control
T/C (endpoint: median survival time, dose: 19.6 mg/kg/injection, schedule: Q01DX011 (ip), vehicle: saline, higher = longer survival): 94 % of control and 96 % of control
T/C (endpoint: median survival time, dose: 32.6 mg/kg/injection, schedule: Q01DX011 (ip), vehicle: saline, higher = longer survival): 43 % of control
T/C (endpoint: median survival time, dose: 54.0 mg/kg/injection, schedule: Q01DX011 (ip), vehicle: saline, higher = longer survival): 42 % of control
T/C (endpoint: median survival time, dose: 90.0 mg/kg/injection, schedule: Q01DX011 (ip), vehicle: saline, higher = longer survival): 39 % of control

CC(C)n1c2c([n+](C)c1/C=C/c1ccccc1)C(=O)c1ccccc1C2=O
T/C (endpoint: mean tumor weight (est.), dose: 1.0 mg/kg/injection, schedule: Q01DX011 (ip), vehicle: saline with Tween-80, higher = larger tumour): 43 % of control

ClC1=NC(Cl)C(Cl)=N/C1=N\c1ncn[nH]1 (stereo not given)
T/C [6]: 108 % of control
T/C [7]: 91 % of control
T/C [8]: 92 % of control
